According to patent US20180133211A1, “METHODS AND MATERIALS FOR PROMOTING BONE FORMATION” (Mayo Foundation for Medical Education and Research, priority 2015, published 2018):

Tested on: H3K27me3 marks in MC3T3 cells
Assay: H3K27me3 ChIPSeq in MC3T3 cells
Type: cell-based, mouse
Details: MC3T3, 5 μM GSK126, 24 hours
Description: MC3T3 (10,000 cells/cm^2) were plated in 10 cm plates in maintenance medium. Two days later, 5 μM GSK126 or vehicle were added to the cells in osteogenic medium. Twenty four hours later, cells were harvested by trypsin, and a chromatin immunoprecipitation assay (ChIP) was performed as described elsewhere (Dudakovic et al., J. Biol. Chem., 288:28783-28791 (2013)) using H3K27Me3 (17-622, Lot 2213948, Millipore) and IgG (PP64B, Lot 2056666A, Millipore) antibodies.
Sequencing libraries were prepared and massively parallel high throughput sequencing was performed on Illumina HiSeq2000 system. The alignment, quality assessment, peak calling, and visualization were performed with the HiChIP analysis pipeline (Yan et al., BMC Bioinformatics, 15:280 (2014)). Briefly, the 50 base-pair reads were aligned to the mm10 reference genome using Burrows-Wheeler Aligner. Duplicates were marked with Picard (http://broadinstitute.github.io/picard), and read-pairs without a unique alignment were filtered out using SAMTools (Li et al., Bioinformatics, 25:2078-2079 (2009)). Duplicates were filtered out using a custom script, and pairs with one or both ends mapped uniquely were retained. Enriched regions were identified using SICER (Zang et al., Bioinformatics, 25:1952-1958 (2009)).

## CC[C@H](C)n1cc(C)c2c(C(=O)NCc3c(C)cc(C)[nH]c3=O)cc(-c3ccc(N4CCNCC4)nc3)cc21 [GSK126, N-[(1,2-dihydro-4,6-dimethyl-2-oxo-3-pyridinyl)methyl]-3-methyl-1-[(1S)-1-methylpropyl]-6-[6-(1-piperazinyl)-3-pyridinyl]-1H-indole-4-carboxamide]
  deposition of H3K27me3 marks near transcriptional start sites (TSSs) across the genome: decreased
